Measured values: PubChem BioAssay (NCI)
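Where inhibition never reached the appropriate level, the endpoint shown equals the highest concentration tested. Otherwise, values were interpolated linearly from a five-concentration, 48-hour dose response in 96-well plates. TGI is the concentration that stops growth completely.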

Experiments:
Test in all cases: inhibition of tumour cell growth, NCI panel, 48 h
EKVX NSCLC = tested on: EKVX NSCLC
BT-549 breast = tested on: BT-549 breast
OVCAR-4 ovarian = tested on: OVCAR-4 ovarian
M14 melanoma = tested on: M14 melanoma
MOLT-4 leukemia = tested on: MOLT-4 leukemia
NCI-H23 lung = tested on: NCI-H23 lung
NCI-H522 lung = tested on: NCI-H522 lung
MDA-MB-231 breast = tested on: MDA-MB-231 breast
MDA-N = tested on: MDA-N
SW-620 colon = tested on: SW-620 colon
HCT-15 colon = tested on: HCT-15 colon
NCI-H460 lung = tested on: NCI-H460 lung
MCF7 breast = tested on: MCF7 breast
OVCAR-3 ovarian = tested on: OVCAR-3 ovarian
RXF 393 renal = tested on: RXF 393 renal

SMILES	TGI (EKVX NSCLC)	TGI (BT-549 breast)	TGI (OVCAR-4 ovarian)	TGI (M14 melanoma)	TGI (MOLT-4 leukemia)	TGI (NCI-H23 lung)	TGI (NCI-H522 lung)	TGI (MDA-MB-231 breast)	TGI (MDA-N)	TGI (SW-620 colon)	TGI (HCT-15 colon)	TGI (NCI-H460 lung)	TGI (MCF7 breast)	TGI (OVCAR-3 ovarian)	TGI (RXF 393 renal)
CCOC(=O)c1c(N2CCCC2)[nH]c(=O)c(C(c2c(O)c(C(=O)OCC)c(N3CCCC3)[nH]c2=O)C(C)C)c1O	> 100 µM	> 100 µM	> 100 µM	> 100 µM	> 100 µM	> 100 µM	> 100 µM	64.3 µM	> 100 µM	> 100 µM	> 100 µM	> 100 µM	> 100 µM	> 100 µM	> 100 µM
COc1ccccc1C1C2=C(COC2=O)Oc2cc3c(cc21)OCO3 (stereo not given)	> 42.8 µM	> 100 µM	> 100 µM	> 33.4 µM	> 100 µM	> 100 µM	8.11 µM	> 87.6 µM	0.763 µM	> 100 µM	> 84.6 µM	> 100 µM	> 89.9 µM	16.7 µM	6.13 µM
CC(=O)C(N1CCCCC1)C(O)(C(F)(F)F)C(F)(F)F (stereo not given)	> 100 µM	> 100 µM	> 100 µM	> 100 µM	> 100 µM	> 100 µM	> 100 µM	> 100 µM	> 100 µM	> 100 µM	> 100 µM	> 100 µM	> 100 µM	> 100 µM	> 100 µM
CN(C(=O)[C@H](NC(=O)OCc1ccccc1)c1ccccc1)C1CCCCC1N1CCCC1 (stereo not given in full)	> 100 µM	> 100 µM	> 100 µM	56.4 µM	> 100 µM	> 100 µM	> 100 µM	> 100 µM	> 100 µM	> 100 µM	> 100 µM	> 100 µM	> 100 µM	> 100 µM	> 100 µM
CC12NC(=C(C#N)C#N)C(C#N)=C3NC(N)=C(C#N)C(=C31)Oc1ccccc12 (stereo not given)	> 100 µM	> 100 µM	> 100 µM	> 100 µM	> 31.6 µM	> 100 µM	> 100 µM	> 100 µM	> 31.6 µM	> 100 µM	> 100 µM	> 100 µM	> 100 µM	> 24.9 µM	6.76 µM
O=C(O)c1cc(N=Nc2ccc([N+](=O)[O-])cc2)ccc1O	> 100 µM	> 100 µM	80.4 µM	> 100 µM	77 µM	> 100 µM	> 100 µM	> 100 µM	> 100 µM	> 100 µM	> 100 µM	83 µM	87.1 µM	39.8 µM	> 100 µM
